Laboratory results taken from patent publication US6310091A, “Fungicidal saponin, CAY-1, and isolation thereof from Capsium species fruit” (The United States of America as represented by the …, priority 2000, dated 2001).
Several values for one entry are separate records, joined by “and”; a condition that tells them apart may be missing. Identical values can stand only once. Like-named read-outs stand apart in the source and are kept apart here.

Columns and labels:
Format in all cases: cell-based
Aspergillus fumigatus = test: Fungicidal bioassay on nongerminated and germinating conidia of A. fumigatus; details: for activity at 2 µM / activity at 3 µM / activity at 4 µM / activity at 5 µM / activity at 7.5 µM / activity at 10 µM / activity at 0.5 µM / activity at 1 µM / activity at 1.5 µM / activity at 2.5 µM: read-out: Percent of Mean Control
Procedure: (§1) 1. Filamentous fungi. Filamentous fungi used in bioassays included Aspergillus flavus, A. fumigatus, A. niger, A. parasiticus and Fusarium oxysporum. The fungicidal properties of CAY-1 for the nongerminated and germinating conidia of these fungi were determined separately as described by De Lucca et al. [Med. Mycol., 36:291-298 (1998)] and De Lucca et al. [Antimicrob. Agents Chemother. 43:371-373 (1999)]. […] Two separate experiments were conducted in each medium (n=8 per medium).
(§2) A suspension of the aforementioned fungi were prepared separately in the appropriate medium. Conidia (10^4 conidia/ml) were used immediately for the nongerminated conidial assays while conidia (10^5 conidia/ml) were incubated for 7.5 hours at 30° C. to obtain germinating conidia. Serial dilutions of CAY-1 were prepared in the appropriate medium (totaling 225 μl) to which was added 25 μl of the conidial suspensions. The control consisted of 225 μl of medium and 25 μl of the conidial suspension. After mixing, the samples were incubated for 30 min (30° C.). Samples were then spread on potato dextrose agar plates which were incubated at 30° C. for 24 hours. Colonies were then enumerated.
(§3) Statistical analyses. ANOVA analyses on ranks for nonparametric data were performed for the bioassays described in this example.

[1] = system: A549 lung carcinoma cells; test: Mammalian cytotoxicity, A549 lung carcinoma cells (ATP content); details: at concentrations effective against the fungi and yeast
Procedure: 2. A549 lung carcinoma cells. Toxicity of CAY-1 was tested by exposing the cells to CAY-1 for 24, 48, and 72 hrs. Antimycin A was used as a positive control. Viability was assessed by measurement of the ATP content in duplicate wells with luciferin-luciferase monitoring reagent [Cushion et al., Antimicrob. Agents Chemother., 1997, 41:379-384].

Aspergillus flavus = test: Time course study against germinating conidia of A. flavus; details: 1% PDB
Procedure: as §1, §2
4. Time course study. The effect of time and concentration on the activity of CAY-1 was determined against the germinating conidia of A. flavus in 1% (w/v) PBD. Bioassays were performed twice as described above (n=8).
as §3

[2] = Aspergillus fumigatus, 0.5 h, read-out: LD95

## CC1CCC2(OC1)OC1CC3C4CCC5CC(OC6OC(CO)C(OC7OC(CO)C(O)C(OC8OC(CO)C(O)C(OC9OC(CO)C(O)C(O)C9O)C8O)C7OC7OC(CO)C(O)C(O)C7O)C(O)C6O)C(O)CC5(C)C4CCC3(C)C1C2C (stereo not drawn) [CAY-1]
Aspergillus fumigatus; Aspergillus fumigatus, 0.5 h, germinating, 1% PDB, 2.0 μM
  activity at 2 µM: 96.1%
Aspergillus fumigatus; Aspergillus fumigatus, 0.5 h, germinating, 1% PDB, 3.0 μM
  activity at 3 µM: 49.9%
Aspergillus fumigatus; Aspergillus fumigatus, 0.5 h, germinating, 1% PDB, 4.0 μM
  activity at 4 µM: 14.4%
Aspergillus fumigatus; Aspergillus fumigatus, 0.5 h, germinating, 1% PDB, 5.0 μM
  activity at 5 µM: 6.1%
Aspergillus fumigatus; Aspergillus fumigatus, 0.5 h, germinating, 1% PDB, 7.5 μM
  activity at 7.5 µM: 2.8%
Aspergillus fumigatus; Aspergillus fumigatus, 0.5 h, germinating, 1% PDB, 10.0 μM
  activity at 10 µM: 0.2%
Aspergillus fumigatus; Aspergillus fumigatus, 0.5 h, germinating, RPMI-1640, 0.5 μM
  activity at 0.5 µM: 92.4%
Aspergillus fumigatus; Aspergillus fumigatus, 0.5 h, germinating, RPMI-1640, 1.0 μM
  activity at 1 µM: 105%
Aspergillus fumigatus; Aspergillus fumigatus, 0.5 h, germinating, RPMI-1640, 1.5 μM
  activity at 1.5 µM: 117%
Aspergillus fumigatus; Aspergillus fumigatus, 0.5 h, germinating, RPMI-1640, 2.0 μM
  activity at 2 µM: 118%
Aspergillus fumigatus; Aspergillus fumigatus, 0.5 h, germinating, RPMI-1640, 2.5 μM
  activity at 2.5 µM: 114%
Aspergillus fumigatus; Aspergillus fumigatus, 0.5 h, germinating, RPMI-1640, 3.0 μM
  activity at 3 µM: 40.7%
Aspergillus fumigatus; Aspergillus fumigatus, 0.5 h, germinating, RPMI-1640, 4.0 μM
  activity at 4 µM: 5.1%
Aspergillus fumigatus; Aspergillus fumigatus, 0.5 h, nongerminated, 1% PDB, 2.0 μM
  activity at 2 µM: 93.9%
Aspergillus fumigatus; Aspergillus fumigatus, 0.5 h, nongerminated, 1% PDB, 3.0 μM
  activity at 3 µM: 80.4%
Aspergillus fumigatus; Aspergillus fumigatus, 0.5 h, nongerminated, 1% PDB, 4.0 μM
  activity at 4 µM: 88.5%
Aspergillus fumigatus; Aspergillus fumigatus, 0.5 h, nongerminated, 1% PDB, 5.0 μM
  activity at 5 µM: 86.7%
Aspergillus fumigatus; Aspergillus fumigatus, 0.5 h, nongerminated, 1% PDB, 7.5 μM
  activity at 7.5 µM: 96.6%
Aspergillus fumigatus; Aspergillus fumigatus, 0.5 h, nongerminated, 1% PDB, 10.0 μM
  activity at 10 µM: 101%
Aspergillus fumigatus; Aspergillus fumigatus, 0.5 h, nongerminated, RPMI-1640, 0.5 μM
  activity at 0.5 µM: 117%
Aspergillus fumigatus; Aspergillus fumigatus, 0.5 h, nongerminated, RPMI-1640, 1.0 μM
  activity at 1 µM: 132%
Aspergillus fumigatus; Aspergillus fumigatus, 0.5 h, nongerminated, RPMI-1640, 1.5 μM
  activity at 1.5 µM: 97.4%
Aspergillus fumigatus; Aspergillus fumigatus, 0.5 h, nongerminated, RPMI-1640, 2.0 μM
  activity at 2 µM: 109%
Aspergillus fumigatus; Aspergillus fumigatus, 0.5 h, nongerminated, RPMI-1640, 2.5 μM
  activity at 2.5 µM: 96.5%
Aspergillus fumigatus; Aspergillus fumigatus, 0.5 h, nongerminated, RPMI-1640, 3.0 μM
  activity at 3 µM: 103%
Aspergillus fumigatus; [2]
  LD95 (concentration killing 95% of conidia): 4 µM
  LD95 (concentration lethal to 95% of conidia): 5 µg/mL
Aspergillus fumigatus; Aspergillus fumigatus, 0.5 h, read-out: concentration achieving significant lethality
  minimal effective concentration: 3 µM and 3.7 µg/mL
Aspergillus fumigatus; Aspergillus fumigatus, 0.5 h, read-out: concentration required for statistically significant viability reduction
  minimal effective concentration: 12.4 µg/mL
Aspergillus fumigatus; Aspergillus fumigatus, 0.5 h, germinating conidia, RPMI-1640, p=0.0002, read-out: concentration required for statistically significant viability reduction
  minimal effective concentration: 10 µM
Aspergillus fumigatus; germinating, 1% PDB, 2.0 μM
  Mean No. of Colonies: 44.1
Aspergillus fumigatus; germinating, 1% PDB, 3.0 μM
  Mean No. of Colonies: 22.9
Aspergillus fumigatus; germinating, 1% PDB, 4.0 μM
  Mean No. of Colonies: 6.6
Aspergillus fumigatus; germinating, 1% PDB, 5.0 μM
  Mean No. of Colonies: 2.8
Aspergillus fumigatus; germinating, 1% PDB, 7.5 μM
  Mean No. of Colonies: 1.3
Aspergillus fumigatus; germinating, 1% PDB, 10.0 μM
  Mean No. of Colonies: 0.1
Aspergillus fumigatus; germinating, RPMI-1640, 0.5 μM
  Mean No. of Colonies: 10.9
Aspergillus fumigatus; germinating, RPMI-1640, 1.0 μM
  Mean No. of Colonies: 12.4
Aspergillus fumigatus; germinating, RPMI-1640, 1.5 μM
  Mean No. of Colonies: 13.8
Aspergillus fumigatus; germinating, RPMI-1640, 2.0 μM
  Mean No. of Colonies: 13.9
Aspergillus fumigatus; germinating, RPMI-1640, 2.5 μM
  Mean No. of Colonies: 13.5
Aspergillus fumigatus; germinating, RPMI-1640, 3.0 μM
  Mean No. of Colonies: 4.8
Aspergillus fumigatus; germinating, RPMI-1640, 4.0 μM
  Mean No. of Colonies: 0.6
Aspergillus fumigatus; nongerminated conidia, either test medium
  viability of nongerminated conidia: not affected
Aspergillus fumigatus; nongerminated, 1% PDB, 2.0 μM
  Mean No. of Colonies: 57.4
Aspergillus fumigatus; nongerminated, 1% PDB, 3.0 μM
  Mean No. of Colonies: 49.1
Aspergillus fumigatus; nongerminated, 1% PDB, 4.0 μM
  Mean No. of Colonies: 54.1
Aspergillus fumigatus; nongerminated, 1% PDB, 5.0 μM
  Mean No. of Colonies: 53.0
Aspergillus fumigatus; nongerminated, 1% PDB, 7.5 μM
  Mean No. of Colonies: 59.0
Aspergillus fumigatus; nongerminated, 1% PDB, 10.0 μM
  Mean No. of Colonies: 61.8
Aspergillus fumigatus; nongerminated, RPMI-1640, 0.5 μM
  Mean No. of Colonies: 27.0
Aspergillus fumigatus; nongerminated, RPMI-1640, 1.0 μM
  Mean No. of Colonies: 30.6
Aspergillus fumigatus; nongerminated, RPMI-1640, 1.5 μM
  Mean No. of Colonies: 22.5
Aspergillus fumigatus; nongerminated, RPMI-1640, 2.0 μM
  Mean No. of Colonies: 25.1
Aspergillus fumigatus; nongerminated, RPMI-1640, 2.5 μM
  Mean No. of Colonies: 22.3
Aspergillus fumigatus; nongerminated, RPMI-1640, 3.0 μM
  Mean No. of Colonies: 23.8
[1]
  lethality to mammalian cells: not lethal
Aspergillus flavus; 2.5 min, 2.0 μM
  Mean No. of Colonies: 184.4
Aspergillus flavus; 2.5 min, 3.0 μM
  Mean No. of Colonies: 174.3
Aspergillus flavus; 2.5 min, 4.0 μM
  Mean No. of Colonies: 170.5
Aspergillus flavus; 2.5 min, 5.0 μM
  Mean No. of Colonies: 170.0
Aspergillus flavus; 2.5 min, 7.5 μM
  Mean No. of Colonies: 160.8
Aspergillus flavus; 2.5 min, 10.0 μM
  Mean No. of Colonies: 154.8
Aspergillus flavus; 5.0 min, 2.0 μM
  Mean No. of Colonies: 182.3
Aspergillus flavus; 5.0 min, 3.0 μM
  Mean No. of Colonies: 190.1
Aspergillus flavus; 5.0 min, 4.0 μM
  Mean No. of Colonies: 171.3
